Calls of active or inactive are those of the source. The calls are words filed in the database; no cut-off is given here.
system: Splenocyte; assay: Effects of compound on IL-2 production in anti-CD3/CD28-stimulated wild type mouse spleenocytes assessed as fold increase in IL-2 level at 0.3 uM after 2 days in presence of […] and NECA; format: functional; conditions: time 2 day

| SMILES | fold change (FC) |
| --- | --- |
| O=C(c1ccccc1)N1CCN(c2cc(N3CCCCC3)c(F)cc2[N+](=O)[O-])CC1 | 4.9 |

system: Splenocyte; assay: Effects of compound on IL-2 production in anti-CD3/CD28-stimulated GPR174 knock out mouse spleenocytes assessed as fold increase in IL-2 level at 0.3 uM after 2 days in presence of NECA; format: functional, cell-based; conditions: time 2.0 day

| SMILES | Activity |
| --- | --- |
| O=C(c1ccccc1)N1CCN(c2cc(N3CCCCC3)c(F)cc2[N+](=O)[O-])CC1 | inactive |

biological target: T1, Probable G-protein coupled receptor 174 (Homo sapiens, UniProt Q9BXC1); assay: Inverse agonist activity at human GPR174 assessed as fold decrease in Gs signalling activity by CRA; format: functional; conditions: filed as inverse agonist
T1 sequence (Q9BXC1 whole entry): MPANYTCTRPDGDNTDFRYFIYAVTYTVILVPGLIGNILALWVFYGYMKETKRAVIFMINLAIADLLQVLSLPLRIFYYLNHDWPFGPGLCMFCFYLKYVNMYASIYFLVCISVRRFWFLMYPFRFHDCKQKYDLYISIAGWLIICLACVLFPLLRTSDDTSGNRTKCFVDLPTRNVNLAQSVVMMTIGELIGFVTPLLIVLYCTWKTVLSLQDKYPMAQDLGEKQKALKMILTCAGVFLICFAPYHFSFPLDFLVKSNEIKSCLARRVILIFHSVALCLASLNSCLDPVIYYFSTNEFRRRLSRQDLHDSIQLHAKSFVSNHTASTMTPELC

| SMILES | fold change (FC) |
| --- | --- |
| O=C1CCCC2=C1C(c1ccc(-c3ccccc3)cc1)C1=C(N2)c2ccccc2C1=O (stereo unspecified) | 2.5 |
| O=C1CCCC2=C1C(c1ccc(OC(F)F)cc1)C1=C(N2)c2ccccc2C1=O (stereo unspecified) | 1.2 |
| CCCOc1ccc(C2C3=C(CCCC3=O)NC3=C2C(=O)c2ccccc23)cc1 (stereo unspecified) | 1 |
| O=C1CCCC2=C1C(c1ccc(Cl)cc1)C1=C(N2)c2ccccc2C1=O (stereo unspecified) | 3 |
| CC(C)Oc1ccc(C2C3=C(CCCC3=O)NC3=C2C(=O)c2ccccc23)cc1 (stereo unspecified) | 0.6 |
| C=C(C)COc1ccc(NC(=O)Nc2ccccc2)cc1 | 0.5 |
| O=C1CCCC2=C1C(c1ccc(OC(F)(F)F)cc1)C1=C(N2)c2ccccc2C1=O (stereo unspecified) | 1.2 |
| CC(=O)N1CCN(c2cc(N3CCCCC3)c(F)cc2[N+](=O)[O-])CC1 | 0.3 |
| C=CCOc1ccc(C2C3=C(CCCC3=O)NC3=C2C(=O)c2ccccc23)cc1 (stereo unspecified) | 1.2 |
| CC(C)c1ccc(C2C3=C(CCCC3=O)NC3=C2C(=O)c2ccccc23)cc1 (stereo unspecified) | 1.2 |
| O=C1CCCC2=C1C(c1ccc(OCCO)cc1)C1=C(N2)c2ccccc2C1=O (stereo unspecified) | 4.4 |
| O=C1CCCC2=C1C(c1ccc(Oc3ccccc3)cc1)C1=C(N2)c2ccccc2C1=O (stereo unspecified) | 1 |
| CCc1ccc(C2C3=C(CCCC3=O)NC3=C2C(=O)c2ccccc23)cc1 (stereo unspecified) | 0.5 |
| CCCCOc1ccc(C2C3=C(CCCC3=O)NC3=C2C(=O)c2ccccc23)cc1 (stereo unspecified) | 1.2 |
| CCCCCCOc1ccc(C2C3=C(CCCC3=O)NC3=C2C(=O)c2ccccc23)cc1 (stereo unspecified) | 0.5 |
| Cc1nnc(-c2ccc(C3C4=C(CCCC4=O)NC4=C3C(=O)c3ccccc34)cc2)o1 (stereo unspecified) | 2.8 |
| CC(C)(C)Oc1ccc(C2C3=C(CCCC3=O)NC3=C2C(=O)c2ccccc23)cc1 (stereo unspecified) | 1.3 |
| COc1ccc(C2C3=C(CCCC3=O)NC3=C2C(=O)c2ccccc23)cc1 (stereo unspecified) | 1 |
| CCOc1ccc(C2C3=C(CCCC3=O)NC3=C2C(=O)c2ccccc23)cc1 (stereo unspecified) | 0.4 |

Results, then the molecule that gave them:

| fold change (FC) | SMILES |
| --- | --- |
| 2 | CCc1ccc(C2C3=C(CCCC3=O)NC3=C2C(=O)c2ccccc23)cn1 (stereo unspecified) |
| 2.6 | O=C1CCCC2=C1C(c1ccc3c(c1)OCCO3)C1=C(N2)c2ccccc2C1=O (stereo unspecified) |
| 0.8 | CC(C)C(=O)N1CCN(c2cc(N3CCCCC3C)c(F)cc2[N+](=O)[O-])CC1 (stereo unspecified) |
| 0.3 | CCOC(=O)N1CCN(c2cc(N3CCCCC3)c(F)cc2[N+](=O)[O-])CC1 |
| 3.3 | CS(=O)(=O)c1ccc(C2C3=C(CCCC3=O)NC3=C2C(=O)c2ccccc23)cc1 (stereo unspecified) |
| 0.8 | CC(=O)N1CCN(c2cc(N3CCC(C)CC3)c(F)cc2[N+](=O)[O-])CC1 |
| 1.1 | Cc1ccc(S(=O)(=O)N2CCN(c3cc(N4CCC(C)CC4)c(F)cc3[N+](=O)[O-])CC2)cc1 |
| 1 | CCOC(=O)N1CCN(c2cc(N3CCCCC3C)c(F)cc2[N+](=O)[O-])CC1 (stereo unspecified) |
| 0.5 | CCC(=O)N1CCN(c2cc(N3CCCCC3)c(F)cc2[N+](=O)[O-])CC1 |
| 2.7 | O=C1CCCC2=C1C(c1ccc([N+](=O)[O-])cc1)C1=C(N2)c2ccccc2C1=O (stereo unspecified) |
| 0.6 | CCOc1ccc(C2C3=C(CCCC3=O)NC3=C2C(=O)c2ccccc23)cn1 (stereo unspecified) |
| 0.9 | CCCC(=O)N1CCN(c2cc(N3CCCCC3)c(F)cc2[N+](=O)[O-])CC1 |
| 0.4 | CC1CCN(c2cc(N3CCN(C(=O)c4cccs4)CC3)c([N+](=O)[O-])cc2F)CC1 |
| 0.4 | CCC(=O)N1CCN(c2cc(N3CCC(C)CC3)c(F)cc2[N+](=O)[O-])CC1 |
| 1.8 | O=[N+]([O-])c1cc(F)c(N2CCCCCC2)cc1N1CCN(S(=O)(=O)c2ccccc2)CC1 |
| 1.7 | Cc1ccc(S(=O)(=O)N2CCN(c3cc(N4CCCCC4)c(F)cc3[N+](=O)[O-])CC2)cc1 |
| 0.5 | O=[N+]([O-])c1cc(F)c(N2CCCCC2)cc1N1CCN(S(=O)(=O)c2ccccc2)CC1 |
| 0.3 | O=C(c1ccccc1)N1CCN(c2cc(N3CCCCC3)c(F)cc2[N+](=O)[O-])CC1 |
| 1.6 | CCOc1cccc(C2C3=C(CCCC3=O)NC3=C2C(=O)c2ccccc23)c1 (stereo unspecified) |
| 0.4 | CCOC(=O)N1CCN(c2cc(N3CCC(C)CC3)c(F)cc2[N+](=O)[O-])CC1 |
| 1 | O=C1CCCC2=C1C(c1ccc(OC3CCCC3)cc1)C1=C(N2)c2ccccc2C1=O (stereo unspecified) |

system: not listed separately; assay: Effects of compound on IL-2 production in anti-CD3/CD28-stimulated human PBMCs assessed as fold increase in IL-2 level at 10 uM after 24 hrs by ELISA; format: functional, PBMC; conditions: not given

| SMILES | fold change (FC) |
| --- | --- |
| Nc1ncnc2c1ncn2[C@@H]1O[C@H](COP(=O)(O)CP(=O)([O-])O)[C@@H](O)[C@H]1O.[Na+] | 1.5 |

system: PBMC; assay: Effects of compound on IL-2 production in anti-CD3/CD28-stimulated human PBMCs assessed as increase in IL-2 level after 2 days by ELISA; format: functional, tissue-based; conditions: dose 1-10 µM, time 2.0 day

| SMILES | Activity |
| --- | --- |
| O=C(c1ccccc1)N1CCN(c2cc(N3CCCCC3)c(F)cc2[N+](=O)[O-])CC1 | Dose-Dependent Effect |

system: Splenocyte; assay: Effects of compound on IL-2 production in anti-CD3/CD28-stimulated wild type mouse spleenocytes assessed as fold increase in IL-2 level at 0.3 uM after 2 days in presence of NECA; format: functional; conditions: time 2 day

| SMILES | fold change (FC) |
| --- | --- |
| O=C(c1ccccc1)N1CCN(c2cc(N3CCCCC3)c(F)cc2[N+](=O)[O-])CC1 | 1.7 |

biological target: T1, Probable G-protein coupled receptor 174; assay: Antagonist activity at human GPR174 by CRA; format: functional; conditions: not given

| EC50 [µM] | SMILES |
| --- | --- |
| 0.5 | Cc1ccccc1Nc1nnc(-c2ccc(C)c(S(N)(=O)=O)c2)c2ccccc12 |

Reference: ChEMBL document CHEMBL4806962, “Methods and Compositions for Treating Cancer” (2020)
